# How the values were obtained:
# [1] = test system: MRSA (ATCC 33591); assay: microbe, parasite or virus in culture; assay type: cell-based, Staphylococcus aureus; settings: Staphylococcus aureus, MHB, 2–5 × 10^5 CFU/mL, 16–18 h, 37 °C, OD600, read-out: Minimum inhibitory concentration, MIC
# Protocol: (§1) The antibacterial activity was evaluated as MIC using slight modifications to a serial broth micro dilution method as reported previously[66],[67]. Briefly, to each treatment well of the 96-well plate (Corning Incorporated, USA) 10 μL of peptidomimetic/antibiotic was added and subsequently diluted serial 2-fold in 0.2% BSA (in 0.01% acetic acid). Then to each well of the first 11 columns 100 μL of mid-log phase bacterial suspension in MHB medium was added to get 2–5 × 10^5 CFU/mL. Cultures without test peptidomimetics/antibiotics were used as growth control. Uninoculated MHB medium was used as negative control. The microtitre plates were incubated overnight with agitation (180 rpm) at 37 °C. After 16–18 h incubation, absorbance was read at 600 nm using an ELISA plate reader (Molecular Devices, Sunnyvale, CA, USA). The experiments were carried out in duplicate on at least three different days.
# [2] = test system: S. aureus (ATCC 29213); assay: microbe, parasite or virus in culture; assay type: cell-based, Staphylococcus aureus; settings: Staphylococcus aureus, ATCC29213, MHB, 2–5 × 10^5 CFU/mL, 16–18 h, 37 °C, OD600, duplicate, at least three days, read-out: Minimum inhibitory concentration, MIC
# Protocol: as §1
# [3] = test system: S. aureus (ATCC 25923); assay: microbe, parasite or virus in culture; assay type: cell-based, Staphylococcus aureus; settings: Staphylococcus aureus, ATCC25923, MHB, 2–5 × 10^5 CFU/mL, 16–18 h, 37 °C, OD600, read-out: Minimum inhibitory concentration, MIC
# Protocol: as §1
# [4] = test system: S. aureus (ISP479C); assay: microbe, parasite or virus in culture; assay type: cell-based, Staphylococcus aureus; settings: Staphylococcus aureus, MHB, 2–5 × 10^5 CFU/mL, 16–18 h, 37 °C, OD600, read-out: Minimum inhibitory concentration, MIC
# Protocol: as §1
# [5] = test system: MRSA (ATCC 43300); assay: microbe, parasite or virus in culture; assay type: cell-based, Staphylococcus aureus; settings: Staphylococcus aureus, MHB, 2–5 × 10^5 CFU/mL, 16–18 h, 37 °C, OD600, read-out: Minimum inhibitory concentration, MIC
# Protocol: as §1
# [6] = test system: exponential phase MRSA ATCC 33591; assay: Bacterial killing kinetics, exponential phase cells in MHB medium; assay type: cell-based, Staphylococcus aureus; settings: 24 h
# Protocol: The kinetics of bacterial killing was determined against MRSA ATCC 33591 strain using drop plate method as described previously with slight modifications[51],[67],[70],[71]. The experiment was performed against exponential phase MRSA in normal medium and stationary phase MRSA in nutrient-depleted medium. For the preparation of nutrient-depleted medium, the primary MRSA ATCC 33591 culture in MHB medium was allowed to grow for 18 h at 37 °C and the cells were removed by centrifugation. The cell pellet was used for stationary phase culture and the spent medium supernatant was used as a nutrient-depleted medium. For obtaining exponential phase cells, MRSA was grown overnight in MHB and 100 μL suspension was used to inoculate 10 mL fresh MHB medium. The cells were incubated at 37 °C for 4–6 h to reach exponential phase.
# For the experiments, both exponential and stationary phase cells were re-suspended separately in normal or nutrient-depleted mediums to OD600 = 0.5 (~10^8 CFU/mL). A 25 µL aliquot of this suspension was added to 475 μL of respective medium with or without test peptidomimetics/antibiotics in an eppendorf tube. […] The agar plates were incubated at 37 °C for 16–18 h and the colonies were counted (dilutions having colonies in the range of 10–100 were counted). […]
# [7] = test system: Methicillin-resistant S. epidermidis (ATCC 35984); assay: microbe, parasite or virus in culture; assay type: cell-based, Staphylococcus epidermidis; settings: Staphylococcus epidermidis, ATCC 35984 / MRSE; MRSE ATCC 35984; MHB, 2–5 × 10^5 CFU/mL, 16–18 h, 37 °C, OD600; read-out: Minimum inhibitory concentration, MIC
# Protocol: as §1
# [8] = test system: 48 h mature MRSA ATCC 33591 biofilms; assay: 48 h mature biofilm, confocal laser scanning microscopy (Live/Dead); assay type: cell-based, Staphylococcus aureus; settings: 24 h treatment at 20 × MIC (S-7 226 μg/mL, S-8 28 μg/mL, VAN 28 μg/mL), untreated 22 μm
# Protocol: For the experiment, a protocol as described previously was used with slight modifications[24],[72]. Briefly, stationary phase MRSA ATCC 33591 culture ~10^5 CFU/mL in TSB medium (supplemented with 0.25% glucose and 0.5% NaCl) was added to the well of an 8-well chamber slide (200 μL). The slide was incubated at 37 °C without shaking for 24 h. After 24 h, the medium was discarded and the biofilm was washed with PBS once (10 mM sodium phosphate, 150 mM NaCl, pH 7.3). […] After 48 h (24 h + 24 h), the planktonic cells were removed and the biofilms were washed with PBS once. To the wells, 200 μL of PBS containing BacLight Live/Dead viability stain [SYTO9 (green fluorescence) and propidium iodide (PI) (red fluorescence) in equal volume] was added and the chamber slides were incubated at room temperature for 15 min in dark. After 15 min, the stain was removed and biofilms were washed with PBS once. To fix the biofilms, 200 μL of neutral buffered formalin (10% in PBS) was added to each well and the slides were kept at room temperature in dark for 30 min. After fixation, the biofilms were washed once, the chamber was removed and a cover slip was placed over the slide. The biofilms were viewed with an Olympus FluoView^TM FV1000 confocal laser scanning microscope (2D and z-stacking). […] For each sample, the biofilms thickness was also determined using z-scanning confocal microscopy. […]
smiles,measurement,setting,value
"CN[C@H](CC(C)C)C(=O)N[C@H]1C(=O)N[C@@H](CC(N)=O)C(=O)N[C@H]2C(=O)N[C@H]3C(=O)N[C@H](C(=O)N[C@H](C(=O)O)c4cc(O)cc(O)c4-c4cc3ccc4O)[C@H](O)c3ccc(c(Cl)c3)Oc3cc2cc(c3O[C@@H]2O[C@H](CO)[C@@H](O)[C@H](O)[C@H]2O[C@H]2C[C@](C)(N)[C@H](O)[C@H](C)O2)Oc2ccc(cc2Cl)[C@H]1O [VAN, vancomycin]",MIC,[1],1.4 µg/mL
same,MIC,[2],0.7 µg/mL
same,MIC,[3],1.4 µg/mL
same,MIC,[4],0.3 µg/mL
same,MIC,[5],0.7 µg/mL
same,log reduction in CFU/mL,[6]; 4 × MIC,~ 2.3 log
same,log reduction in CFU/mL,[6]; 10 × MIC,~ 2.3 log
same,MIC,[7],2.8 µg/mL
same,biofilm thickness,[8],14 μm

# Source: article PMC5773577, “Novel Miniature Membrane Active Lipopeptidomimetics against Planktonic and Biofilm Embedded Methicillin-Resistant Staphylococcus aureus” (Scientific Reports, 2018)
